Data taken from article PMC7934871 (JCI Insight, 2021).

Assays:
pY705-STAT3 = assay: Western blotting of p-STAT3 in HCT116 cells; type: cell-based, human; conditions: HCT116, 1 µM, 48 hours
Text: Figure 3 PS-acet.-STAT3 peptide inhibits STAT3 activity and downregulates the expression of STAT3 targets. (A) Downregulation of STAT3 activity and its downstream target proteins shown in human HCT116 colorectal cancer cells by Western blotting (data represent 1 of the 3 experiments, n = 3). PO-acet.-STAT3 and PS-STAT3-K685R peptides were used in parallel as controls. (B) STAT3 inhibition regulated the expression of proliferation and apoptotic genes, assessed by real-time quantitative PCR. Data present mean ± SD, n = 3 independent experiments, 1-way ANOVA; ***P < 0.005; **P < 0.01. […] For p53 promoter assay, data represent 3 replicates in 3 independent experiments (n = 9). For cell proliferation assay, data represent 3 independent experiments. SD is shown (n = 3). One-way ANOVA; ***P < 0.005; **P < 0.01.
Whole cell lysates or tissue homogenates were prepared by using RIPA lysis buffer (50 mM Tris at pH 7.4, 150 mM NaCl, 1 mM EDTA, 0.5% NP-40, 1 mM NaF, 15% glycerol, and 20 mM β-glycerophosphate). A protease inhibitor cocktail (Mini Protease Inhibitor Cocktail; Roche) and a tyrosine phosphatase inhibitor, sodium orthovanadate (Na3VO4, 1 mM), were added freshly to the lysis buffer. Protein amounts were determined by BCA using a Thermo Fisher Scientific kit. Normalized protein amounts were subjected to an SDS-PAGE and transferred onto a nitrocellulose membrane for Western blotting. […] The protein levels for STAT1 (sc-346, E-23), STAT3 (sc-482, C-20), STAT5 (sc-74442, A-9), Crm1 (exportin 1) (sc-5595, H-300), CAS (exportin 2) (sc-271537, H-2), exportin 5 (sc-66885, H-300), and exportin 7 (sc-98639, H-82) were determined using antibodies from Santa Cruz Biotechnology Inc. Anti–exportin 3 (exportin T, 630622, LOS1 05-1525), anti–exportin 4 (3499-1), and anti–exportin 6 (11408-1-AP) were from MilliporeSigma, Epitomics, and Proteintech, respectively. […]
(§1) Supplemental Figure 4 (related to Figure 1). […] Phosphorylation of STAT3 at Y705 and STAT5 at Y694 was detected by Western blotting after 48 hours treatment of PS-acet.-STAT3 peptide (1 µM) or napabucasin (1 µM) in HCT116 cells. […]

pY694-STAT5 = assay: Western blotting of p-STAT5 in HCT116 cells; type: cell-based, human; conditions: HCT116, 1 µM, 48 hours
Method: Whole cell lysates or tissue homogenates were prepared by using RIPA lysis buffer (50 mM Tris at pH 7.4, 150 mM NaCl, 1 mM EDTA, 0.5% NP-40, 1 mM NaF, 15% glycerol, and 20 mM β-glycerophosphate). A protease inhibitor cocktail (Mini Protease Inhibitor Cocktail; Roche) and a tyrosine phosphatase inhibitor, sodium orthovanadate (Na3VO4, 1 mM), were added freshly to the lysis buffer. Protein amounts were determined by BCA using a Thermo Fisher Scientific kit. Normalized protein amounts were subjected to an SDS-PAGE and transferred onto a nitrocellulose membrane for Western blotting. Proteins were visualized with a chemiluminescent detection kit (Pierce, Thermo Fisher Scientific). The protein levels for STAT1 (sc-346, E-23), STAT3 (sc-482, C-20), STAT5 (sc-74442, A-9), Crm1 (exportin 1) (sc-5595, H-300), CAS (exportin 2) (sc-271537, H-2), exportin 5 (sc-66885, H-300), and exportin 7 (sc-98639, H-82) were determined using antibodies from Santa Cruz Biotechnology Inc. Anti–exportin 3 (exportin T, 630622, LOS1 05-1525), anti–exportin 4 (3499-1), and anti–exportin 6 (11408-1-AP) were from MilliporeSigma, Epitomics, and Proteintech, respectively. […]
as §1

B16 melanoma = B16 melanoma lung metastasis in C57BL/6 mice; type: in vivo, mouse; conditions: B16 i.v. in C57BL/6 mice, 1 mg/kg i.v. every other day, gp100 staining, n = 5
Text: Figure 7 PS-acet.-STAT3 peptide treatment efficiently reduces mouse melanoma lung metastasis. (A) Systemic PS-acet.-STAT3 peptide treatment reduces B16 lung nodules in syngeneic mouse model compared with control treatments. The B16 lung nodules in mice treated with the indicated STAT3 peptides and vehicle (n = 5) were visualized by IF staining of gp100 and quantified by confocal microscopy and Zen software. The levels of phosphorylation of STAT3 (p-STAT3), CD69, and Foxp3 in the tumor or tumor-infiltrating CD8^+ T or CD4^+ T cells were detected by IF staining followed by confocal microscopy in B16 metastatic lung nodules upon treatments with vehicle, PO- or PS-acet.-STAT3, PS-STAT3-K685R, or PS-unacet.-STAT3 peptides as indicated. Images are representative of 5 lungs per experimental group. Scale bars: 20 μm (CD69, CD8, CD4, p-STAT3, and Foxp3) and 100 μm (gp100). White arrows indicate the immune cells. Insets: original magnification, ×40. (B) The graphs show the quantification of gp100 and p-STAT3 expression levels (MFI) or the cell population (%) of CD69^+ in CD8^+ or p-STAT3^+ in CD4^+ or Foxp3^+ in CD4^+ (data represent 5 lungs per group, n = 5). SD is shown. One-way ANOVA; ****P < 0.001.
Mouse care and experimental procedures were performed under pathogen-free conditions in accordance with established institutional guidance and approved IACUC protocols from Research Animal Care Committee of the City of Hope. For s.c. tumor challenge, 5 × 10^6 HCT116 cells were injected into NSG mice from The Jackson Laboratory or animal resource core facility at the City of Hope. After tumors reached an average size of 80~100 mm^3, mice were locally or intravenously treated with 1 mg/kg of PO- or PS-peptides (Anaspec) every day or every other day. Control animals were treated with the equal volume of HBSS (Invitrogen, Thermo Fisher Scientific). Tumor growth was measured by a digital caliper every other day. To study the effects of the modified peptides at protein and gene levels, mice were euthanized 4–6 weeks after tumor injection. B16 melanoma lung metastasis was performed by injecting 0.5 × 10^6 B16 cells into bloodstream of C57BL/6 mice (The Jackson Laboratory). One day after tumor challenge, mice were treated intravenously (retro-orbitally) with 1 mg/kg of PO- or PS-acet.-STAT3, PS-unacet.-STAT3, or PS-STAT3-K685R peptides every other day until the endpoint as indicated. Control mice were treated with HBSS. Lungs were excised from the mice, and B16 nodules were visualized by gp100 staining. Lungs were then analyzed for immune responses by immunostaining followed by confocal imaging. For mouse PDAC model, 5 × 10^6 KPC mouse cells were mixed with Matrigel and subcutaneously injected into C57BL/6 mice (The Jackson Laboratory). After tumors reached an average size of 80~100 mm^3, mice were intravenously treated with 1 mg/kg of PO- or PS-Gp130, PS-oligo, PS-SC-MYC, PS-MYC. or combined PS-Gp130/PS-MYC (0.5 mg/kg, 0.5 mg/kg) (Anaspec) every other day for 18 days. Control animals were treated with the equal volume of HBSS (Invitrogen, Thermo Fisher Scientific). Tumor growth was measured by a digital caliper every other day. To study the effects of the modified peptides at protein and gene levels, mice were euthanized at the endpoint as indicated.

HCT116 xenograft tumors = assay: HCT116 xenograft in NSG mice, peritumoral treatment; type: in vivo, mouse; conditions: HCT116 s.c. in NSG mice, 1 mg/kg peritumoral every day, n = 4
Method: Mouse care and experimental procedures were performed under pathogen-free conditions in accordance with established institutional guidance and approved IACUC protocols from Research Animal Care Committee of the City of Hope. For s.c. tumor challenge, 5 × 10^6 HCT116 cells were injected into NSG mice from The Jackson Laboratory or animal resource core facility at the City of Hope. After tumors reached an average size of 80~100 mm^3, mice were locally or intravenously treated with 1 mg/kg of PO- or PS-peptides (Anaspec) every day or every other day. Control animals were treated with the equal volume of HBSS (Invitrogen, Thermo Fisher Scientific). Tumor growth was measured by a digital caliper every other day. […] Lungs were then analyzed for immune responses by immunostaining followed by confocal imaging. […] Tumor growth was measured by a digital caliper every other day. […]
(B) PS-acet.-STAT3 peptide downregulates STAT3 phosphorylation, assessed by Western blotting using tumor homogenates prepared from tumors shown in A.
(C) mRNA levels for CASP9, BIRC5 and BCL2L1 in the same tumor tissues described above were assessed by qRT-PCR. […]
(D) Treatments with PS-acet.-STAT3 peptide induced cell death, indicated by H&E staining (upper panel). […] Right panels represent quantification of Ki-67 protein levels and mean of vessel diameter (data include 5 fields of view per group). […]

[1] = Systemic toxicity in mice; type: in vivo; conditions: 1 mg/kg i.v. every other day for 3 weeks, n = 3
Method: To evaluate the potential toxicity associated with systemic treatments of PS-peptide, PS-acet.-STAT3 peptide, PS-oligo, naive peptide, and PO- or PS-acet.-STAT3 peptide were given to the mice at 1 mg/kg through i.v. every other day for 3 weeks.
Supplemental Figure 10 (related to Figure 3). The systemic toxicity of PS-acet.-peptide.
The bodyweight (A), blood count (B) and organ morphology (H&E staining; spleen, kidney and liver) (C) of the mice (n=3) treated with HBSS (1), PS-oligo (2), naïve peptide (3), PO-peptide (4) or PS-peptide (5) every other day at 1 mg/kg (per treatment) for 3 weeks.
Individual value of each mouse is shown as a dot on the graph. The red lines on each graph in (B) indicate the normal ranges. Blood count was done by a veterinary hematology analyzer. The images shown in (C) are the represented H&E section from three mice (n=3). Enlarged view are shown below as indicated. Scale bar, 50 µm.
Aftabizadeh and Li et al., Figure S10

Row | Molecule | phosphorylated STAT3 (p-STAT3, Y705) level (pY705-STAT3) | p-STAT5 (Y694) level (pY694-STAT5) | metastatic lung nodules (B16 melanoma) | tumor growth (HCT116 xenograft tumors) | behavior, body weight, blood counts [1] | morphology and cell death in liver, spleen, kidney tissues (H&E) [1]
1 | CC(=O)c1cc2c(o1)C(=O)c1ccccc1C2=O [napabucasin, reference compound] | inhibited | inhibited |  |  |  | 
2 | PDIPKEEAFGK685(Ac)YCRPESQEHPC-linker-TCCATGAGCTTCCTGATGCT [PO-acet.-STAT3 peptide] |  |  | few antitumor effects | not | No behavior changes, body weight loss, or abnormal blood counts | no significant morphology change or cell death
